Source: patent publication US8182844B2, “Use of Clerodendrum sp. for treating tic disorders or psychiatric disorders with sensorimotor gating deficits” (priority 2010, dated 2012)

The compounds below were run on chronic motor tic disorder (assay: Case report: effect on tics in a child with chronic motor tic disorder). Details: single patient, before taking the leaf extract.
Type: in vivo, human
Description: Withholding all medications for 1 day, they received examination of catecholamine metabolites in the cerebrospinal fluid.
Subsequently, this patient, started to take the extract of the grounded leaves of Clerodendrum inerme, which was prepared by mixing the leaves with water by a blender and collecting the juice after filtration as resulted. […] Honey was added because of the bitter taste. […] The follow-up IQ test had been arranged, but the patient was absent on the examination day.
This patient followed up regularly in NTUH pediatric outpatient clinic for their seizure problem.

| Compound | effect of earlier anti-tic medications on the involuntary movements of the patient |
| --- | --- |
| Cc1nc2n(c(=O)c1CCN1CCC(c3noc4cc(F)ccc34)CC1)CCCC2 [Risperidone] | in vain |
| Clc1cccc(Cl)c1N=C1NCCN1 [clonidine] | without success |
| CN1C(=O)CN=C(c2ccccc2)c2cc(Cl)ccc21 [diazepam] | in vain |
| O=C(CCCN1CCC(O)(c2ccc(Cl)cc2)CC1)c1ccc(F)cc1 [haloperidol] | in vain |
| CCCN1C[C@H](CSC)C[C@@H]2c3cccc4[nH]cc(c34)C[C@H]21 [pergolide] | without success |
| CCN1CCCC1CNC(=O)c1cc(S(N)(=O)=O)ccc1OC (stereo not drawn) [sulpiride] | without success |
| biperidal | without success |

What follows are compounds tested on methamphetamine-induced PPI disruption in mice (assay: Methamphetamine-induced disruption of prepulse inhibition of the startle response (PPI), dopamine hypothesis model). Details: diazepam, dose not given; methamphetamine 2 mg/kg; FIG. 2B.
Type: in vivo, mouse
Excerpt: PPI is a neurophysiological phenomenon that the startle response to a stimulus, which could be a sound, an airpuff or a light, is inhibited if a stimulus with the same source but at weaker intensity prior to the stimulus was applied within a short interval. This is a fast neuroadaptative system to protect the living organisms from startle stimulation. It is believed to be a processing protection in a living organism that PPI serves as a sensorimotor gating, a pre-conscious regulator of attention, to reduce the startle response which is harmful to the information professing. […] PPI can be assessed by the motor response in either humans (measuring the eyeblink response by electromyograph) or animals (measuring the startle response).
Mice were i.p. injected by methamphetamine (2 mg/kg) to induce PPI disruption, as a schizophrenia model based on dopamine hypothesis. PPI was measured using the SR-LAB Startle Response System (San Diego Instrument, San Diego, Calif.). […] In the startle-alone trials, the basic auditory startle was measured, and in the prepulse-plus-startle trials, the amount of inhibition of normal startle induced by the prepulse was measured and expressed as a percentage of the basic startle. In the prepulse-alone trials, the normal response to a weak noise was measured as a control.

| Compound | rescue of methamphetamine-induced PPI disruption |
| --- | --- |
| CN1C(=O)CN=C(c2ccccc2)c2cc(Cl)ccc21 [diazepam] | did not rescue |

Same assay, conditions: methamphetamine 2 mg/kg i.p. alone, without extract; 71 db prepulse; control mice 55.6±3.5%

| Compound | PPI (inhibition of startle response to 115 db by prepulse) |
| --- | --- |
| CN[C@@H](C)Cc1ccccc1 [methamphetamine] | 42.4±4.1% |
